Measurements from US9040671B2, “Methods for cancer management targeting Co-029” (Institut National de la Sante et de la Recherche Medicale …, priority 2010, dated 2015).

Legend:
p120-catenin = test: Flow cytometry of p120-catenin in permeabilized cells after RNA silencing; format: cell-based, human; conditions: Is1-Co029 cells on collagen I, 48 hours after silencing
Protocol: For intracellular cytometry, cells were detached using trypsin or scrapped in PBS (4° C.) then fixed for 20 min at 4° C. with 1% formaldehyde in PBS. After centrifugation, cells were incubated in methanol 100% for 10 min at −20° C. then washed in PBS and stained with 10 μg/ml of primary antibody. After washes in PBS, cells were incubated with 10 μg ml FITC-labelled secondary antibody (Beckman Coulter), washed again three times and immediately analysed.
(§1) RNA silencing. Cells (1-3×10^5 cells in DMEM medium) were reverse transfected with synthetic si-RNA oligonucleotides using Interferrin (Ozyme) according to manufacturer's protocol.
(§2) 6, 12 or 24 well cell culture plates were coated with rat tail collagen I. Plates were rinsed in PBS. One μl of the siRNA (10 μM) oligonucleotide mix was added to 96 μl DMEM without serum and 3-5 μl Interferrin and incubated at room temperature in each well during 20 min to allow formation of transfection complexes. Cells detached by trypsin-EDTA were layered at appropriate concentration in 400 μlDMEM medium with serum (the final concentration of si-RNA was 20 nM).

E-cadherin = test: Flow cytometry of surface E-cadherin after RNA silencing; format: cell-based, human; conditions: Is1-Co029 cells cultured on collagen I
Protocol: Immunofluorescence. For flow cytometry analysis of cell surface molecules, cells were detached using a non-enzymatic solution (Invitrogen), washed and stained with 10 μg/ml of primary antibody. After washes in culture medium, cells were incubated with 10 μg/ml-1 FITC-labelled secondary antibody (Beckman Coulter), washed again three times and fixed with 1% formaldehyde in PBS. All incubations were performed for 30 min at 4° C. Analysis of cell-surface staining was performed using a FACScalibur flow cytometer (Becton-Dickinson, San Jose, Calif., USA).
as §1, §2

Is1-Co029 cells = test: 2D cell motility on collagen I by videomicroscopy, Is1-Co029 cells; format: cell-based, human
Protocol: Cells and cell culture. The cell lines Isreco1, Isreco2 and Isreco3 were initially derived from a primary human colon cancer surgical specimen (Isreco1)(Duke's C, class III) and its corresponding liver and peritoneal metastases (Cajot et al., 1997). These cells were cultured in Dulbecco's modified Eagle's medium (DMEM) supplemented with 10% FCS, glutamax and antibiotics (all from Invitrogen). For experiments, tissue culture plastics were coated with rat tail Collagen I (BD Biosciences) for 1 hour at 50 μg/ml and rinsed with PBS.
Construction of the Co-029 and CD81 lentiviral vector and transduction of Isreco1 cells. Since Isreco1 cells were not efficiently transfected by using non retroviral methods we constructed the TRIPΔ3-EF1α-Co029 and TRIPΔ3-EF1α-CD81 plasmids by inserting the human Co029 and the human CD81 cDNA coding sequence in TRIPΔ3-EF1α vectors. […]. Is1-Co029 and Is1-CD81 cells were obtained by transducing Isrecol cells twice with concentrated lentiviral particles. Is1-Co029low cells were obtained following a single transduction.
Videomicroscopy. Analysis of 2D cell motility on collagen I films was performed using phase contrast on an inverted microscope (Axiovert 200; Zeiss,Oberkochen, Germany) equipped with an environmental chamber with 5% CO2 in air at 37° C. The microscope was driven by the Metamorph software (Roper Scientific),and images were recorded with a Coolsnap HQ camera (Roper Scientific). Stacks of phase contrast images were collected every 15 min for 24 h at ×200 magnification. Cell migration was quantified using the manual tracking plugin of ImageJ (Rasband, 2007) Raw data were transfered to Excel for speed calculations and statistical analysis was performed by the non parametric Mann-Whitney test in Graphpad. For each position at least 10 cells were analyzed. Experiments were repeated from 2 to 10 times to verify the robustness of the results and the stability of the measurements.
For silencing experiments, motility measures were performed 48 hours after RNAi treatments. […]

Is1-Co029 tumor cells = test: Effect of antiCo-029 antibodies on subcutaneous tumor growth; format: in vivo, mice; conditions: 1 mg i.p. biweekly; for Tumor growth inhibition (T/C %): vs PBS control
Protocol: Effect of antiCo-029 antibodies on subcutaneous tumor growth. In order to realize the animal experiments, a large amounts of purified mAbs was prepared. The yield of mAb TS29.2 (IgG2b) was of approximately 5 mg purified mAb/ml ascitis. Mice produce a mean of 10 ml ascitis/mouse.
Ascitis were clarified by centrifugation and 0.45 μm filtered. The mAbs were purified by using the Biosepra MEP HyperCel* Hydrophobic Charge Induction Chromatography (HCIC) Sorbent, dialysed against PBS and the purity checked by gel electrophoresis and Coomassie Blue coloration. Fractions were aliquoted and frozen at −20° C.
The effect of the antibodies on tumor growth was evaluated by subcutaneous implantation of tumor cells issued from colon carcinoma cell lines, followed by repeated injections of monoclonal antibodies with appropriate controls.
Ten Nude mice were injected subcutaneously with 10^7 Is1-Co029 tumor cells and divided in two groups, antibody treated and PBS control. Each group received an i.p. injection of either 1 mg Ts29.2 or the same volume of PBS and biweekly subsequent injections of 1 mg Ts29.2 or PBS i.p., for a total of nine injections. The size of the tumor was determined by the formula (π/6×length×width×thickness).
Tumor growth inhibition (T/C %) was defined as the ratio of the median tumor volume for the treated vs. control group. It will be calculated as T/C %=[(median tumor volume of treated group at day X)/(median tumor volume of control group at day X)]×100.

## si-p120: si-RNA to p120ctn; si-p120a GCCAGAGGUGGUUCGGAUAdTdT (SEQ ID NO: 20) used throughout the study (listed as RNA, chemistry not fully specified)
p120-catenin
  reduction of the amount of p120ctn: 80%
E-cadherin
  reduction of surface E-cadherin: 50%

## si-RhoA: si-RNA to RhoA, GAACUAUGUGGCAGAUAUCdTdT (SEQ ID NO: 23), Dharmacon (listed as RNA, chemistry not fully specified) [reference compound]
Is1-Co029 cells; sparse cells on collagen I, agent alone
  effect on motility of Is1-Co029 cells, in words: same effect on motility as p120-catenin silencing

## si-Co029: si-RNA to Co-029, GGUAUCCUAGGAGCUGUUUdTdT (SEQ ID NO: 10) (listed as RNA, chemistry not fully specified)
Is1-Co029 cells; cells silenced for p120ctn
  effect on the acceleration of Is1-Co029 cells induced by si-p120, in words: reversed
Is1-Co029 cells; co-silencing with si-Ecad
  effect on the increased motility induced by si-Ecad, in words: suppressed

B1: Ts29.2: murine monoclonal antibody against Co-029 obtainable from hybridoma CNCM I-4047; VH SEQ ID NO: 1, VL SEQ ID NO: 5 (antibody, V domains shown)
VH: EVKVVESGGGLVQPGGSLRLSCATSGFTFTDYYMSWVRQPPGKALEWLGFIRNRVSGYTTEYSASVQGRFTISRDNSQSILYLQMNTLRAEDSATYYCARDHYGNFAMDYWGQGTSVTVSS
VL: DIQMTQSSSSFSVSLGDRVTITCKASEDIYNRLAWYQQKPGNAPRLLISGATSLETGVPSRFSGSGSGKDYTLSITSLQTEDVASYYCQQYWSTPFTFGSGTKLEIK
modifications: Synthetic VH; Synthetic VL
Is1-Co029 tumor cells; Nude mice
  growth of Is1-Co029 cells (subcutaneous tumor), in words: inhibits significantly
Is1-Co029 tumor cells; day 43 (J43), nine injections
  Tumor growth inhibition (T/C %): 36%
Is1-Co029 tumor cells; day 50 (J50), nine injections
  Tumor growth inhibition (T/C %): 35%
Is1-Co029 tumor cells; day 50, nine injections, PBS control 557±141.6
  mean tumor size: 195.7±47.7 mm^3
